In test [1] the test system is normal human epidermal keratinocytes (NHEK). The test is described as follows: Human epidermal keratinocyte proliferation assay. Format: cell-based. As to conditions: together with calcitriol, three days, [3H]-thymidine 18 h. The protocol:
1. HEK Cell Media • Supplemented KGM media with additional reagents provided in the bullet kit as per supplier's instructions. • Added calcium chloride to final concentration of 0.3 mM.
2. Calcitriol Dilutions • Stock: Calcitriol (1 mM)
3. Substrate Dilutions • Stock: substrate (0.1 mM)
1. Cell Culture • Thawed one vial of HEK cells containing at least 500 K, and divided into 5 25 cm^2 flasks with 5 ml HEK cell media. 24 h later, removed media and replenished with 5 ml fresh media. Changed media again 48 h later.
2. Preparation of Cell Suspension • On the day of the assay, washed the monolayer of HEK cells once with 1×PBS buffer (provided in reagent pack) and then trypsinized for 5 min at 37° C. Added trypsin neutralizing solution (provided in reagent pack). Collected cells into tube, centrifuged cells (500×g, 5 min) and resuspended in HEK cell media. Counted cells and adjusted density to 150,000 cells/ml. Diluted cells further 1:30 with HEK cell media.
2. Cell Plating • Added 150 μl of cell suspension to appropriately labelled wells of a 96-well plate. Incubated plate for 48 h at 37° C. in a humidified atmosphere containing 5% CO2 for adherence of cells to wells.
3. […]
4. Cell Harvesting and Counting • Added 0.2 μCi/well of [^3H]-thymidine in 20 μl of HEK cell media to each well. Incubated plates for 18 h at 37° C. in a humidified atmosphere containing 5% CO2. Aspirated media and washed with 1×PBS. Trypsinize-cells for 30 min at 37° C. in a humidified atmosphere containing 5% CO2. Harvested cells onto filter plates using Tomtec cell harvester as per manufacturer's instructions. Added 25 μl scintillation fluid per well. Measured radioactivity using a scintillation counter. All values were normalized for background.

Test [2] deals with T1, VDR (Homo sapiens, UniProt P11473).
T1 construct: purchased Biomol
T1 sequence (P11473 1-427): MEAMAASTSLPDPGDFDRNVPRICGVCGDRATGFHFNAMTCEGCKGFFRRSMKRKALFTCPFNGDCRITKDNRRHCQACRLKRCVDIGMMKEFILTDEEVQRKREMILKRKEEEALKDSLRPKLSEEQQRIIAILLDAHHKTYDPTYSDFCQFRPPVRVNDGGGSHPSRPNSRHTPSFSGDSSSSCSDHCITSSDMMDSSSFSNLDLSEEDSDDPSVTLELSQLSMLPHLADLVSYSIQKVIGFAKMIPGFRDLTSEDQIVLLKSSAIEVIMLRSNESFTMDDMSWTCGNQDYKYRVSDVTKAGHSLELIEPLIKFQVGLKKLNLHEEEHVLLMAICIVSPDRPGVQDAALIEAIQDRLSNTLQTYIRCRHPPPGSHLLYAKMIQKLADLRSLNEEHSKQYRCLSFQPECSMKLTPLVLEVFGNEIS
The test is described as follows: VDR binding assay. The note with it: B50: displacement of 50 percent [3H]-1,25(OH)2D3 from human recombinant VDR. The protocol:
1. VDR 9.4 pmol/μl (human, recombinant, Biomol).
4. TEK300 • Tris-HCI 50 mM • EDTA 1.5 mM • KCI 300 mM Adjust pH to 7.4 (25° C.)
3. Preparation of 1.25(OH)2D3 and test compounds in ethanol
1 μl stock VDR in 2.5 ml TEDK300/Gelatin solution (500 μl/tube), (keep on ice)
• Label tubes according to the following chart, each in triplicate:
• Mixed all tubes via vortex and incubated at room temperature for 1 hour. Added 10 μL of 3H-1,25(OH)2D3 Working Dilution, mixed by vortex and incubated at room temperature for 1 hour 2. Sample processing • Thirty minutes before addition, put Charcoal/Dextran Solution on ice with continuous mixing. Added […] of Charcoal/Dextran Solution to each tube, mixed well and incubated on ice for 30 minutes. Centrifuged @ 2000 rpm for 10 minutes at 4° C. 3. Counting • Pipetted 100 μL of the upper, aqueous phase to a 24 well scintillation counting plate and added 600 μL scintillation fluid per well, covered and mixed well. Counted the plate using a scintillation counter for 5 min/sample. (iv) Calculations: • The amount of 1,25(OH)2D3 to displace 50 percent [^3H]-1,25(OH)2D3 from VDR was calculated as B50 for 1,25(OH)2D3. The VDR binding of other compounds was calculated as B50 relative to a value of 1 for 1,25(OH)2D3.

This note sets out measurements from US7973024B2, “24-sulfoximine vitamin D3 compounds” (Cyctochroma Inc., priority 2002, dated 2011).

SMILES strings stand for the structures. pIC50: −log10 of the molar value.

Consider `C=C1/C(=C\C=C2/CCC[C@]3(C)[C@@H]([C@H](C)CCS(=N)(=O)c4ccccc4)CC[C@@H]23)C[C@@H](O)C[C@@H]1O` (single isomer, unassigned) [I(a)], for which the “inhibition of proliferation of normal human epidermal keratinocytes (NHEK)” value (“inhibition” below) in test [1] is reported as “act to inhibit the proliferation”. In test [2], the negative-log IC50 (pIC50) is under 5.70.
On to `C=C1/C(=C\C=C2/CCC[C@]3(C)[C@@H]([C@H](C)CCS(=O)(=NC)c4ccccc4)CC[C@@H]23)C[C@@H](O)C[C@@H]1O` (single isomer, unassigned) [I(e)], for which, in test [1], the “inhibition” value was “act to inhibit the proliferation”. The negative logarithm of the IC50 (pIC50) in test [2] was under 5.70.
With `C[C@H](CCS(=N)(=O)c1ccccc1)[C@H]1CC[C@H]2/C(=C/C=C3C[C@@H](O)C[C@H](O)C3)CCC[C@]12C` (single isomer, unassigned) [I(i), 24-Phenyl Sulfoximine 19-Nor-Vitamin-D3], in test [1], the “inhibition” value was “act to inhibit the proliferation”. Moreover, the pIC50 in test [2] was under 5.70.
